Like-named read-outs stand apart in the source and are kept apart here.
Target: T1, AR protein in VCaP cells (Homo sapiens, UniProt P10275)
T1 construct: endogenous in cells; host or cells: VCaP cells
T1 sequence (P10275 1-920): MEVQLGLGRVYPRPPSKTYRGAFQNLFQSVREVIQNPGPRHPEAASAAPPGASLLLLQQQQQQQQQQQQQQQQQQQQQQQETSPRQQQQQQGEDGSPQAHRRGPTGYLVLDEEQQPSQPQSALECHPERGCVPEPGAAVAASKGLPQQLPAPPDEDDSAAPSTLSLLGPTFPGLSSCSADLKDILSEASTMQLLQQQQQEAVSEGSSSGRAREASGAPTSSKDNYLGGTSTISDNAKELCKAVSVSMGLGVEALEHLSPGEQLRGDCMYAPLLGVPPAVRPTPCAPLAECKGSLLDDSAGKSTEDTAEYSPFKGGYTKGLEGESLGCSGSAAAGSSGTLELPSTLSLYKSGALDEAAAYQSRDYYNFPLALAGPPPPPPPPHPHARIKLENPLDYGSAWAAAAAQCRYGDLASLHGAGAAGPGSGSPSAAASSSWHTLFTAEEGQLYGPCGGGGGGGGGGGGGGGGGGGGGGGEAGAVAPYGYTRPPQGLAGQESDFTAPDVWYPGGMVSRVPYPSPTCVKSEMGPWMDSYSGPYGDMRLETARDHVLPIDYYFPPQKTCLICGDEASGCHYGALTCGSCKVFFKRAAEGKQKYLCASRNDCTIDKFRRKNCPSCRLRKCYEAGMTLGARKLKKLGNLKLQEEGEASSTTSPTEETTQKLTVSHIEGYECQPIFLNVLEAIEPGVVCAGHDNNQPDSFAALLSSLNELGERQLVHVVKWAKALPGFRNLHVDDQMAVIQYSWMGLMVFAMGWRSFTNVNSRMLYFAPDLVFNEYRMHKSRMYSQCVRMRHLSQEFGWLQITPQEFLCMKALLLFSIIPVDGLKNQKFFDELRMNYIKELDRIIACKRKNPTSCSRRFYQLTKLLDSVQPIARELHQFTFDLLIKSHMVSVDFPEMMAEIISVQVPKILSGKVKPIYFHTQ
Assay: VCAP AR Degradation Assay (AR ELISA, 24 h)
Assay type: cell-based
Settings: for Y (lowest measured AR level normalized to DMSO control): AR degradation efficiency; for DC50: concentration of compound when AR level = 50% of DMSO control
How it was run: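 VCaP cells in DMEM with 8% FBS exposed for 24 h at 37° C to a 10-point, 1:3 series (final top concentration […]; 0.1% DMSO control). Lysate AR measured by sandwich ELISA and normalized to DMSO as percent of control. DC50, EC50 and lowest AR level (Y) from four-parameter logistic fit.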

SMILES | Y (lowest measured AR level normalized to DMSO control) | DC50 (read-out: DC50) | DC50
CCc1cc(N2C(=S)N(c3ccc(C#N)c(C(F)(F)F)c3)C(=O)C23CCC3)ccc1OCCC1CCN([C@@H](C)C(=O)Nc2cc(NC3CCC(=O)NC3=O)ccc2F)CC1 (stereo partly drawn) [Cmpd 74, (2S)-2-(4-(2-(4-(7-(4-cyano-3-(trifluoromethyl)phenyl)-8-oxo-6-thioxo-5,7-diazaspiro[3.4]octan-5-yl)-2-ethylphenoxy)ethyl)piperidin-1-yl)-N-(5-(2,6-dioxopiperidin-3-ylamino)-2-fluorophenyl)propanamide] | ** (25%<Y<=35%) | 100 to 500 nM | –
CCc1cc(N2C(=S)N(c3ccc(C#N)c(C(F)(F)F)c3)C(=O)C2(C)C)ccc1OCCC1CCN([C@H](C)C(=O)Nc2cccc(NC3CCC(=O)NC3=O)c2)CC1 (stereo partly drawn) [Cmpd 42, (2R)-2-(4-(2-(4-(3-(4-cyano-3-(trifluoromethyl)phenyl)-5,5-dimethyl-4-oxo-2-thioxoimidazolidin-1-yl)-2-ethylphenoxy)ethyl)piperidin-1-yl)-N-(3-(2,6-dioxopiperidin-3-ylamino)phenyl)propanamide] | ** (25%<Y<=35%) | 100 to 500 nM | –
CCc1cc(N2C(=S)N(c3cnc(C#N)c(C(F)(F)F)c3)C(=O)C2(C)C)ccc1OCCC1(C)CCN(CC(=O)Nc2cc(Cl)cc(NC3CCC(=O)NC3=O)c2)CC1 (stereo not shown) [Cmpd 64, N-(3-chloro-5-(2,6-dioxopiperidin-3-ylamino)phenyl)-2-(4-(2-(4-(3-(6-cyano-5-(trifluoromethyl)pyridin-3-yl)-5,5-dimethyl-4-oxo-2-thioxoimidazolidin-1-yl)-2-ethylphenoxy)ethyl)-4-methylpiperidin-1-yl)acetamide] | * (0<Y<=25%) | 100 to 500 nM | –
CC(C)c1cc(N2C(=S)N(c3ccc(C#N)c(C(F)(F)F)c3)C(=O)C2(C)C)ccc1OCC[C@@H]1CCN(CC(=O)Nc2cccc(NC3CCC(=O)NC3=O)c2)[C@H](C)C1 (stereo partly drawn) [Cmpd 91, 2-((2R,4R)-4-(2-(4-(3-(4-cyano-3-(trifluoromethyl)phenyl)-5,5-dimethyl-4-oxo-2-thioxoimidazolidin-1-yl)-2-isopropylphenoxy)ethyl)-2-methylpiperidin-1-yl)-N-(3-(2,6-dioxopiperidin-3-ylamino)phenyl)acetamide] | ** (25%<Y<=35%) | 500 to 1000 nM | –
CCc1cc(N2C(=S)N(c3cnc(C#N)c(C(F)(F)F)c3)C(=O)C2(C)C)ccc1OCC[C@H]1CCN(CC(=O)Nc2cccc(NC3CCC(=O)NC3=O)c2)[C@H](C)C1 (stereo partly drawn) [Cmpd 76, 2-((2R,4S)-4-(2-(4-(3-(6-cyano-5-(trifluoromethyl)pyridin-3-yl)-5,5-dimethyl-4-oxo-2-thioxoimidazolidin-1-yl)-2-ethylphenoxy)ethyl)-2-methylpiperidin-1-yl)-N-(3-(2,6-dioxopiperidin-3-ylamino)phenyl)acetamide] | * (0<Y<=25%) | < 100 nM | –
CCc1cc(N2C(=S)N(c3cnc(C#N)c(C(F)(F)F)c3)C(=O)C2(C)C)ccc1OCC[C@@H]1C[C@H]2CC[C@@H](C1)N2CC(=O)Nc1cc(Cl)cc(NC2CCC(=O)NC2=O)c1 (stereo partly drawn) [Cmpd 62, N-(3-chloro-5-(2,6-dioxopiperidin-3-ylamino)phenyl)-2-((1R,3s,5S)-3-(2-(4-(3-(6-cyano-5-(trifluoromethyl)pyridin-3-yl)-5,5-dimethyl-4-oxo-2-thioxoimidazolidin-1-yl)-2-ethylphenoxy)ethyl)-8-azabicyclo[3.2.1]octan-8-yl)acetamide] | * (0<Y<=25%) | – | < 100 nM
CCc1cc(N2C(=S)N(c3cnc(C#N)c(C(F)(F)F)c3)C(=O)C2(C)C)ccc1OCCC1CCN([C@@H](C)C(=O)Nc2cccc(N[C@H]3CCC(=O)NC3=O)c2)CC1 [Cmpd 46, (S)-2-(4-(2-(4-(3-(6-cyano-5-(trifluoromethyl)pyridin-3-yl)-5,5-dimethyl-4-oxo-2-thioxoimidazolidin-1-yl)-2-ethylphenoxy)ethyl)piperidin-1-yl)-N-(3-((S)-2,6-dioxopiperidin-3-ylamino)phenyl)propanamide] | * (0<Y<=25%) | < 100 nM | –
CCc1cc(N2C(=S)N(c3cnc(C#N)c(C(F)(F)F)c3)C(=O)C23CCC3)ccc1OCCC1CCN(CC(=O)Nc2cccc(NC3CCC(=O)NC3=O)c2)CC1 (stereo not shown) [Cmpd 29, 2-(4-(2-(4-(7-(6-cyano-5-(trifluoromethyl)pyridin-3-yl)-8-oxo-6-thioxo-5,7-diazaspiro[3.4]octan-5-yl)-2-ethylphenoxy)ethyl)piperidin-1-yl)-N-(3-(2,6-dioxopiperidin-3-ylamino)phenyl)acetamide] | * (0<Y<=25%) | < 100 nM | –
CCc1cc(N2C(=S)N(c3ccc(C#N)c(C(F)(F)F)c3)C(=O)C23CCC3)ccc1OCCC1CCN(CC(=O)Nc2cc(NC3CCC(=O)NC3=O)ccc2F)CC1 (stereo not shown) [Cmpd 57, 2-(4-(2-(4-(7-(4-cyano-3-(trifluoromethyl)phenyl)-8-oxo-6-thioxo-5,7-diazaspiro[3.4]octan-5-yl)-2-ethylphenoxy)ethyl)piperidin-1-yl)-N-(5-(2,6-dioxopiperidin-3-ylamino)-2-fluorophenyl)acetamide] | * (0<Y<=25%) | 100 to 500 nM | –
CCc1cc(N2C(=S)N(c3cnc(C#N)c(C(F)(F)F)c3)C(=O)C23CCC3)ccc1OCCC1C[C@H]2CC[C@@H](C1)N2CC(=O)Nc1cc(Cl)cc(NC2CCC(=O)NC2=O)c1 (stereo partly drawn) [Cmpd 69, N-(3-chloro-5-(2,6-dioxopiperidin-3-ylamino)phenyl)-2-((1R,5S)-3-(2-(4-(7-(6-cyano-5-(trifluoromethyl)pyridin-3-yl)-8-oxo-6-thioxo-5,7-diazaspiro[3.4]octan-5-yl)-2-ethylphenoxy)ethyl)-8-azabicyclo[3.2.1]octan-8-yl)acetamide] | ** (25%<Y<=35%) | – | 100 to 500 nM
CC1(C)C(=O)N(c2ccc(C#N)c(C(F)(F)F)c2)C(=S)N1c1ccc(OCCC2CCN(CC(=O)Nc3cccc(NC4CCC(=O)NC4=O)c3)CC2)c(CCF)c1 (stereo not shown) [Cmpd 48, 2-(4-(2-(4-(3-(4-cyano-3-(trifluoromethyl)phenyl)-5,5-dimethyl-4-oxo-2-thioxoimidazolidin-1-yl)-2-(2-fluoroethyl)phenoxy)ethyl)piperidin-1-yl)-N-(3-(2,6-dioxopiperidin-3-ylamino)phenyl)acetamide] | * (0<Y<=25%) | < 100 nM | –
CCc1cc(N2C(=S)N(c3ccc(C#N)c(C(F)(F)F)c3)C(=O)C2(C)C)ccc1OCC[C@H]1CCN(CC(=O)Nc2cccc(NC3CCC(=O)NC3=O)c2)[C@H](C)C1 (stereo partly drawn) [Cmpd 70, 2-((2R,4S)-4-(2-(4-(3-(4-cyano-3-(trifluoromethyl)phenyl)-5,5-dimethyl-4-oxo-2-thioxoimidazolidin-1-yl)-2-ethylphenoxy)ethyl)-2-methylpiperidin-1-yl)-N-(3-(2,6-dioxopiperidin-3-ylamino)phenyl)acetamide] | * (0<Y<=25%) | < 100 nM | –
CCc1cc(N2C(=S)N(c3cnc(C#N)c(C(F)(F)F)c3)C(=O)C2(C)C)ccc1OCC[C@@H]1CCN(CC(=O)Nc2cc(NC3CCC(=O)NC3=O)ccc2F)[C@H](C)C1 (stereo partly drawn) [Cmpd 79, 2-((2R,4R)-4-(2-(4-(3-(6-cyano-5-(trifluoromethyl)pyridin-3-yl)-5,5-dimethyl-4-oxo-2-thioxoimidazolidin-1-yl)-2-ethylphenoxy)ethyl)-2-methylpiperidin-1-yl)-N-(5-(2,6-dioxopiperidin-3-ylamino)-2-fluorophenyl)acetamide] | ** (25%<Y<=35%) | 100 to 500 nM | –
CCc1cc(N2C(=S)N(c3ccc(C#N)c(C(F)(F)F)c3)C(=O)C2(C)C)ccc1OC1CCN(CC(=O)Nc2cc(Cl)cc(NC3CCC(=O)NC3=O)c2)CC1 (stereo not shown) [Cmpd 49, N-(3-chloro-5-(2,6-dioxopiperidin-3-ylamino)phenyl)-2-(4-(4-(3-(4-cyano-3-(trifluoromethyl)phenyl)-5,5-dimethyl-4-oxo-2-thioxoimidazolidin-1-yl)-2-ethylphenoxy)piperidin-1-yl)acetamide] | ** (25%<Y<=35%) | 100 to 500 nM | –
